Test results published in PMC9698773, “Design, Synthesis, Molecular Modeling, and Anticancer Evaluation of New VEGFR-2 Inhibitors Based on the Indolin-2-One Scaffold” (Pharmaceuticals, 2022).
Several values for one entry are separate records, joined by “and”; a condition that tells them apart may be missing. Equal entries are not always repeated.

Legend:
HepG2 cells = assay: Cell cycle analysis (PI staining, flow cytometry); assay type: cell-based, human; conditions: HepG2, 1.13 µM, 24 h
Experimental: The liver HepG2 cells were treated with 1.13 μM of 17a, and the effect on the cell cycle distribution was evaluated by flow cytometric analysis, as described in the Supplementary Materials. […]
(§1) 4.2.3. Cell cycle analysis
To determine the role of the synthesized compounds in cell cycle distribution, cell cycle analysis was performed using propidium iodide (PI) staining and flow cytometry analysis for compound 17a. A Flow Cytometry Kit for Cell Cycle Analysis (ab139418_Pro‐ pidium Iodide Flow Cytometry Kit/BD) was used in this test. HepG2 cells were treated with compound 17a (1.13 μM) for 24 h. Then, the cells were fixed in 70% ethanol at 4 °C for 12 h. After that, the cells were washed with cold PBS, incubated with 100 μl RNase A at 37 °C for 30 min, and stained with 400 μ l PI in the dark at room temperature for a further 30 min. The stained cells were measured using a BD FACSCalibur™ Flow Cytometer, and the data were analyzed using Flowing software (version 2.5.1, Turku Centre for Biotech‐

caspase-9 = assay: Caspase-9 expression assay (quantitative real-time PCR); assay type: cell-based, human; conditions: HepG2, 1.13 µM, 24 h; control = 1
Experimental: The gene expression fold change of caspase-3 and -9 in the HepG2 cells treated with 1.13 µM of compound 17a for 24 h was determined using quantitative real-time PCR analysis.
The expression of caspase-3 and -9 in the liver HepG2 cells treated with 1.13 μM of 17a was determined using quantitative real-time PCR analysis, as presented in the Supplementary Materials.
Pharmaceuticals 2022, 15, x FOR PEER REVIEW 3 of 22
Figure S1. Simple linear regression for the correlation between cytotoxicity against HepG2 cell line […]
Figure S2. Simple linear regression for the correlation between cytotoxicity against MCF‐7 cell line […]
as §1
To determine the role of the synthesized compounds in cell cycle distribution, cell cycle analysis was performed using propidium iodide (PI) staining and flow cytometry analysis for compound 17a. […] The stained cells were measured using a BD FACSCalibur™ Flow Cytometer, and the data were analyzed using Flowing software (version 2.5.1, Turku Centre for Biotech‐ […]
Flow cytometry cell apoptosis analysis was used to investigate the apoptotic effect of the synthesized compounds. […] The stained cells were measured using a BD FACSCalibur™ Flow Cytometer and analyzed using Flowing software. […]
The expression of BAX and Bcl‐2 proteins were determined using Western blot anal‐ ysis. […]

Compound: O=C1Nc2ccccc2C1=Nc1ccc(C(=O)NNC(=S)Nc2ccccc2)cc1 [Compound 17a, 2-(4-((2-Oxoindolin-3-ylidene)amino)benzoyl)-N-phenylhydrazinecarbothioamide]
- Cell Cycle Distribution %G0-G1 (HepG2 cells): 42.91%
- Cell Cycle Distribution %G2/M (HepG2 cells): 9.07%
- Cell Cycle Distribution %S (HepG2 cells): 48.02%
- Cell Cycle Distribution %pre G1 (HepG2 cells): 46.38%
- increase of cell population at S phase versus control (HepG2 cells): 1.43 fold
- phase of cell cycle arrest (HepG2 cells): S phase
- Gene Expression Fold Change (Normalized to β-Actin) Caspases-9 (caspase-9): 3.7 fold and 3.703 fold
